Laboratory results published in patent US10273218B2, “BCL-3 inhibitors” (University College Cardiff Consultants Limited, priority 2014, dated 2019).

melting point [°C]	Structure (SMILES)
90 to 92	O=C(NCCN1CCOCC1)c1ccccc1NC(=O)c1ccccc1C(F)(F)F [Compound 9, N-(2-morpholinoethyl)-2-(2-(trifluoromethyl)benzamido) benzamide]
99 to 101	O=C(Nc1ccccc1C(=O)NCCN1CCOCC1)c1ccc(C(F)(F)F)cc1 [Compound 11, N-(2-morpholinoethyl)-2-(4-(trifluoromethyl)benzamido) benzamide]
88 to 90	O=C(Nc1cccc(F)c1C(=O)NCCN1CCOCC1)c1ccccc1F [Compound 13, 2-fluoro-6-(2-fluorobenzamido)-N-(2-morpholinoethyl) benzamide]
104 to 106	O=C(Nc1cc(F)ccc1C(=O)NCCN1CCOCC1)c1ccccc1F [Compound 14, 4-fluoro-2-(2-fluorobenzamido)-N-(2-morpholinoethyl) benzamide]
128 to 131	COc1cccc(C(=O)NCCN2CCOCC2)c1NC(=O)c1cccc(F)c1 [Compound 17, 2-(3-fluorobenzamido)-3-methoxy-N-(2-morpholinoethyl) benzamide]
148 to 151	COc1cccc(C(=O)NCCN2CCOCC2)c1NC(=O)c1ccc(F)cc1 [Compound 18, 2-(4-fluorobenzamido)-3-methoxy-N-(2-morpholinoethyl) benzamide]
136	COc1cc(NC(=O)c2ccccc2F)c(C(=O)NCCN2CCOCC2)cc1OC [Compound 19, 2-(2-fluorobenzamido)-4,5-dimethoxy-N-(2-morpholinoethyl) benzamide]
141	COc1cc(NC(=O)c2ccccc2F)c(C(=O)NCCN2CCOCC2)c(OC)c1OC [Compound 20, 6-(2-fluorobenzamido)-2,3,4-trimethoxy-N-(2-morpholinoethyl) benzamide]
105 to 107	COc1ccccc1C(=O)Nc1c(OC)cccc1C(=O)NCCN1CCOCC1 [Compound 25, 3-methoxy-2-(2-methoxybenzamido)-N-(2-morpholinoethyl) benzamide]
110 to 113	COc1cccc(C(=O)Nc2c(OC)cccc2C(=O)NCCN2CCOCC2)c1 [Compound 26, 3-methoxy-2-(3-methoxybenzamido)-N-(2-morpholinoethyl) benzamide]
143	COc1ccc(C(=O)Nc2cc(OC)c(OC)c(OC)c2C(=O)NCCN2CCOCC2)cc1 [Compound 27, 2,3,4-trimethoxy-6-(4-methoxybenzamido)-N-(2-morpholinoethyl)benzamide]
103 to 106	COc1ccc(C(=O)Nc2c(OC)cccc2C(=O)NCCN2CCOCC2)c(OC)c1 [Compound 29, 2-(2,4-dimethoxybenzamido)-3-methoxy-N-(2-morpholinoethyl) benzamide]
85	O=C(Nc1ccccc1C(=O)NCCN1CCOCC1)c1cccnc1 [Compound 32, N-(2-((2-morpholinoethyl)carbamoyl)phenyl)nicotinamide]
155	COc1cc(NC(=O)c2cccnc2)c(C(=O)NCCN2CCOCC2)c(OC)c1OC [Compound 33, N-(3,4,5-trimethoxy-2-((2-morpholinoethyl)carbamoyl)phenyl) nicotinamide]
76 to 79	O=C(Nc1ccccc1C(=O)NCCCN1CCOCC1)c1ccccc1F [Compound 34, 2-fluoro-N-(2-((3-morpholinopropyl)carbamoyl)phenyl) benzamide]
112 to 114	COc1ccc(C(=O)Nc2ccccc2C(=O)NCCCN2CCOCC2)cc1 [Compound 35, 2-(4-methoxybenzamido)-N-(3-morpholinopropyl)benzamide]
110 to 112	O=C(NCCCN1CCOCC1)c1ccccc1NC(=O)c1cccc2ccccc12 [Compound 36, N-(2-((3-morpholinopropyl)carbamoyl)phenyl)-1-naphthamide]
103 to 105	O=C(Nc1ccccc1C(=O)NCCCN1CCOCC1)c1ccc2ccccc2c1 [Compound 37, N-(2-((3-morpholinopropyl)carbamoyl)phenyl)-2-naphthamide]
98	O=C(Nc1ccccc1C(=O)NCCN1CCNCC1)c1ccc([N+](=O)[O-])cc1 [Compound 38, 2-(4-nitrobenzamido)-N-(2-(piperazin-1-yl)ethyl)benzamide]
60	O=C(Nc1ccccc1C(=O)NCCN1CCNCC1)c1ccc(Cl)cc1 [Compound 39, 2-(4-chlorobenzamido)-N-(2-(piperazin-1-yl)ethyl)benzamide]
91	COc1ccc(C(=O)Nc2ccccc2C(=O)NCCN2CCNCC2)cc1 [Compound 42, 2-(4-methoxybenzamido)-N-(2-(piperazin-1-yl)ethyl)benzamide]
68	O=C(Nc1ccccc1C(=O)NCCN1CCNCC1)c1cc(F)cc(F)c1 [Compound 43, 3,5-difluoro-N-(2-((2-(piperazin-1-yl)ethyl)carbamoyl)phenyl) benzamide]
79	O=C(NCCN1CCNCC1)c1ccccc1NC(=O)c1c(F)cccc1F [Compound 44, 2,6-difluoro-N-(2-((2-(piperazin-1-yl)ethyl)carbamoyl)phenyl) benzamide]

melting point [°C]	Structure (SMILES)
84	O=C(Nc1ccccc1C(=O)NCCN1CCNCC1)c1ccc(F)cc1F [Compound 45, 2,4-difluoro-N-(2-((2-(piperazin-1-yl)ethyl)carbamoyl)phenyl) benzamide]
80	CN1CCN(CCNC(=O)c2ccccc2NC(=O)c2ccccc2)CC1 [Compound 47, 2-benzamido-N-(2-(4-methylpiperazin-1-yl)ethyl)benzamide]
122	CN1CCN(CCNC(=O)c2ccccc2NC(=O)c2ccc([N+](=O)[O-])cc2)CC1 [Compound 48, N-(2-(4-methylpiperazin-1-yl)ethyl)-2-(4-nitrobenzamido) benzamide]
81	CN1CCN(CCNC(=O)c2ccccc2NC(=O)c2cccc(F)c2)CC1 [Compound 50, 2-(3-fluorobenzamido)-N-(2-(4-methylpiperazin-1-yl)ethyl) benzamide]
104	CN1CCN(CCNC(=O)c2ccccc2NC(=O)c2cccc(Cl)c2)CC1 [Compound 51, 2-(3-chlorobenzamido)-N-(2-(4-methylpiperazin-1-yl)ethyl) benzamide]
99	CN1CCN(CCNC(=O)c2ccccc2NC(=O)c2ccc(Cl)cc2)CC1 [Compound 52, 2-(4-chlorobenzamido)-N-(2-(4-methylpiperazin-1-yl)ethyl) benzamide]
111	COc1ccccc1C(=O)Nc1ccccc1C(=O)NCCN1CCN(C)CC1 [Compound 53, 2-methoxy-N-(2-((2-(4-methylpiperazin-1-yl)ethyl)carbamoyl)phenyl)benzamide]
114	COc1ccc(C(=O)Nc2ccccc2C(=O)NCCN2CCN(C)CC2)cc1 [Compound 54, 2-(4-methoxybenzamido)-N-(2-(4-methylpiperazin-1-yl)ethyl) benzamide]
111	CN1CCN(CCNC(=O)c2ccccc2NC(=O)c2cc(F)cc(F)c2)CC1 [Compound 56, 3,5-difluoro-N-(2-((2-(4-methylpiperazin-1-yl)ethyl)carbamoyl)phenyl)benzamide]
121 to 122	CN1CCN(CCNC(=O)c2ccccc2NC(=O)c2ccc(F)cc2F)CC1 [Compound 57, 2,4-difluoro-N-(2-((2-(4-methylpiperazin-1-yl)ethyl)carbamoyl)phenyl)benzamide]
110 to 112	COc1ccc(C(=O)Nc2ccccc2C(=O)NCCN2CCN(C)CC2)c(F)c1 [Compound 58, 2-fluoro-4-methoxy-N-(2-((2-(4-methylpiperazin-1-yl)ethyl)carbamoyl)phenyl)benzamide]
60	COc1cc(NC(=O)c2ccccc2F)c(C(=O)NCCN2CCN(C)CC2)cc1OC [Compound 59, 2-(2-fluorobenzamido)-4,5-dimethoxy-N-(2-(4-methylpiperazin-1-yl)ethyl)benzamide]
130	COc1cc(NC(=O)c2ccccc2F)c(C(=O)NCCN2CCN(C)CC2)c(OC)c1OC [Compound 60, 6-(2-fluorobenzamido)-2,3,4-trimethoxy-N-(2-(4-methylpiperazin-1-yl)ethyl)benzamide]
70	COc1ccc(C(=O)Nc2cc(OC)c(OC)cc2C(=O)NCCN2CCN(C)CC2)cc1 [Compound 61, 4,5-dimethoxy-2-(4-methoxybenzamido)-N-(2-(4-methylpiperazin-1-yl)ethyl)benzamide]
115	COc1ccc(C(=O)Nc2cc(OC)c(OC)c(OC)c2C(=O)NCCN2CCN(C)CC2)cc1 [Compound 62, 2,3,4-trimethoxy-6-(4-methoxybenzamido)-N-(2-(4-methylpiperazin-1-yl)ethyl)benzamide]
99	CN1CCN(CCNC(=O)c2ccccc2NC(=O)c2cccnc2)CC1 [Compound 63, N-(2-((2-(4-methylpiperazin-1-yl)ethyl)carbamoyl)phenyl) nicotinamide]
126	COc1cc(NC(=O)c2cccnc2)c(C(=O)NCCN2CCN(C)CC2)cc1OC [Compound 64, N-(4,5-dimethoxy-2-((2-(4-methylpiperazin-1-yl)ethyl)carbamoyl)phenyl)nicotinamide]
143	COc1cc(NC(=O)c2cccnc2)c(C(=O)NCCN2CCN(C)CC2)c(OC)c1OC [Compound 65, N-(3,4,5-trimethoxy-2-((2-(4-methylpiperazin-1-yl)ethyl)carbamoyl)phenyl)nicotinamide]
98 to 100	CN1CCN(CCCNC(=O)c2ccccc2NC(=O)c2cccc3ccccc23)CC1 [Compound 68, N-(2-((3-(4-methylpiperazin-1-yl)propyl)carbamoyl)phenyl)-1-naphthamide]
71 to 72	CN1CCN(CCCNC(=O)c2ccccc2NC(=O)c2ccc3ccccc3c2)CC1 [Compound 69, N-(2-((3-(4-methylpiperazin-1-yl)propyl)carbamoyl)phenyl)-2-naphthamide]
104 to 106	O=C(Nc1ccccc1C(=O)NCCc1ccccc1)c1ccc(Cl)cc1 [Compound 76, 2-(4-chlorobenzamido)-N-phenethylbenzamide]
96 to 98	O=C(Nc1cccc(F)c1C(=O)NCCc1ccccc1)c1ccccc1F [Compound 81, 2-fluoro-6-(2-fluorobenzamido)-N-phenethylbenzamide]
